From US4652549A, “Cardiac anti-hypertrophic agents” (Merck & Co., Inc., priority 1985, dated 1987)

Test system: cardiac hypertrophy
Assay: 7-day continuous infusion, reversing cardiac hypertrophy (heart weight)
Assay type: in vivo
Conditions: 30 pmole per kg per minute
Excerpt: Heart Weight (grams H2 O per 100 grams tissue)

## Arg-Arg-Ser-Ser-Cys-Phe-Gly-Gly-Arg-Ile-Asp-Arg-Ile-Gly-Ala-Gln-Ser-Gly-Leu-Gly-Cys-Asn-Ser-Phe-Arg-Tyr (RRSSCFGGRIDRIGAQSGLGCNSFRY; printed: Arg-Arg-Ser-Ser-Cys-Phe-Gly-Gly-Arg-Ile-Asp-Arg-Ile-Gly-Ala-Gln-Ser-Gly-Leu-Gly-Cys-Asn-Ser-Phe-Arg-Tyr) [PEPTIDE OF EXAMPLE 5]
NORMAL group, n = 22
  Heart Weight: 0.45 + 0.02 grams H2 O per 100 grams tissu
First group (heading not given, presumably hypertrophic animals), n = 23, statistically significant at p less than 0.05
  Heart Weight: 0.70 + 0.03 grams H2 O per 100 grams tissu
